According to patent US20260042746A1, “2(1H)-PYRIDINIMINE DERATIVE” (SUMITOMO PHARMA CO., LTD., priority 2022, published 2026):

How the values were obtained:
Format in all cases: cell-based
[1] = test system: α-synuclein aggregate; assay: Test 2: suppressing the accumulation of α-synuclein aggregate in neurospheroid from PLA2G6 mutant human iPS cells; details: compound added day 4, measured day 9, DMSO = 100%; for activity at 0.1 µM: 100 nM, read-out: Amount of aggregate (%) 100 nM; for activity at 1 µM: 1000 nM, read-out: Amount of aggregate (%) 1000 nM
Experimental: Test 2: Evaluation of Suppressing the Accumulation of α-Synuclein Aggregate with Neurospheroid Prepared from Human iPS Cells with a Mutation in PLA2G6 Gene
(§1) (1) Induction of Differentiation from Human iPS Cell to Neural Cell
Neural stem cells were induced from PLA2G6 gene mutant iPS cells with PSC Neuronal Induction Medium (Thermo Fisher Scientific Inc., cat #A1647801). Neurospheroid was prepared from the induced neural stem cells by three-dimensional culture system, and preserved with BrainPhys Neuronal Medium (STEMCELL Technologies, cat #ST-05793) comprising NeuroCult SM1 Neuronal Supplement, N2 Supplement-A, 20 ng/mL BDNF, 20 ng/mL GDNF, 1 mM dibutyryl cAMP, and 200 nM ascorbic acid. Half of the culture medium was replaced on day 2 and day 4 after the induction of differentiation.
The test compound was diluted with the culture medium so as to be twice the final concentration, and an equal volume of the twice-concentrated solution was added to each well when half of the culture medium was replaced on day 4 after induction of differentiation.
(§2) (2) Evaluation of the Amount of α-Synuclein Aggregate
(§3) From the neurospheroid 9 days after the induction of differentiation, proteins were extracted with a TBS solution containing 1% TritionX-100, and the extracted proteins were subjected to a protein analysis with Simple Western system (Protein Simple, Inc., cat #SM-W008) using an α-synuclein antibody (Thermo Fisher Scientific Inc., cat #AHB0261) to measure the amount of the α-synuclein aggregate.
Assuming that the amount of the aggregate in the neurospheroid added with a DMSO solution is 100%, the amount of the aggregate in the neurospheroid added with each test compound was evaluated.

[2] = test system: α-synuclein aggregate; assay: Test 3: reducing the accumulation of α-synuclein aggregate in neurospheroid from PLA2G6 mutant human iPS cells; details: compound added day 10, measured day 15, DMSO = 100%
Experimental: Test 3: Evaluation of Reducing the Accumulation of α-Synuclein Aggregate with Neurospheroid Prepared from Human iPS Cells with a Mutation in PLA2G6 Gene
as §1
(§4) Neural stem cells were induced from PLA2G6 gene mutant iPS cells with PSC Neuronal Induction Medium (Thermo Fisher Scientific Inc., cat #A1647801). Neurospheroid was prepared from the induced neural stem cells by three-dimensional culture system, and preserved with BrainPhys Neuronal Medium (STEMCELL Technologies, cat #ST-05793) comprising NeuroCult SM1 Neuronal Supplement, N2 Supplement-A, 20 ng/mL BDNF, 20 ng/mL GDNF, 1 mM dibutyryl cAMP, and 200 nM ascorbic acid. Half of the culture medium was replaced every 3 or 4 days after the induction of differentiation.
The test compound was diluted with the culture medium so as to be twice the final concentration, and an equal volume of the twice-concentrated solution was added to each well when half of the culture medium was replaced on day 10 after induction of differentiation.
as §2
as §3, with “15” for “9”
(§5) The amount of the aggregate in the neurospheroid added with each test compound was measured. Assuming that the amount of the aggregate in the neurospheroid added with a DMSO solution is 100%, the amount of the aggregate in the test samples was evaluated.

[3] = test system: α-synuclein aggregate; assay: Test 5: suppressing the accumulation of α-synuclein aggregate in dopamine neurospheroid from PLA2G6 mutant human iPS cells; details: compound added day 21, measured day 26, DMSO = 100%
Experimental: Test 5: Evaluation of Suppressing the Accumulation of α-Synuclein Aggregate with Dopamine Neurospheroid Prepared From Human iPS Cells with a Mutation in PLA2G6 Gene
as §1
as §4, with “Dopaminergic progenitor” for “Neural stem”, “dopaminergic neuron differentiation kit” for “PSC Neuronal Induction Medium”, “#A3147701). Dopamine neurospheroid” for “#A1647801). Neurospheroid”, “dopaminergic progenitor” for “neural stem”
The test compound was diluted with the culture medium so as to be twice the final concentration, and an equal volume of the twice-concentrated solution was added to each well when half of the culture medium was replaced on day 21 after induction of differentiation.
as §2
as §3, with “From the dopamine neurospheroid 26” for “From the neurospheroid 9”, “dopamine neurospheroid 26 days after” for “the neurospheroid 9 days after”
as §5

[4] = test system: α-synuclein aggregate; assay: Test 11: reducing the accumulation of α-synuclein aggregate in dopamine neurospheroid from GBA1 mutant human iPS cells; details: compound added day 40, measured day 44, DMSO = 100%
Experimental: Test 11: Evaluation of Reducing the Accumulation of α-Synuclein Aggregate with Dopamine Neurospheroid Prepared From Human iPS Cells with a Mutation in GBA1 Gene
as §1
as §4, with “Dopaminergic progenitor” for “Neural stem”, “GBA1” for “PLA2G6”, “dopaminergic neuron differentiation kit” for “PSC Neuronal Induction Medium”, “#A3147701). Dopamine neurospheroid” for “#A1647801). Neurospheroid”, “dopaminergic progenitor” for “neural stem”, “days.” for “days after the induction of differentiation.”
The test compound was diluted with the culture medium so as to be twice the final concentration, and an equal volume of the twice-concentrated solution was added to each well when half of the culture medium was replaced on day 40 after induction of differentiation.
as §2
as §3, with “From the dopamine neurospheroid 44” for “From the neurospheroid 9”, “dopamine neurospheroid 44 days after” for “the neurospheroid 9 days after”
as §5

Row | SMILES | activity at 0.1 µM [1] | activity at 1 µM [1] | Amount of aggregate (%) 100 nM [2] | Amount of aggregate (%) 1000 nM [2] | Amount of aggregate (%) 100 nM [3] | Amount of aggregate (%) 1000 nM [3] | Amount of aggregate (%) 100 nM [4] | Amount of aggregate (%) 1000 nM [4]
1 | COc1c/c(=N\C(=O)C2(C)CN(C)C2)n(C)cc1Cl [Example 60, N-[(2E)-5-chloro-4-methoxy-1-methylpyridin-2(1H)-ylidene]-1,3-dimethylazetidine-3-carboxamide] | 44% | 15% | 9% | 9% | 21% | 15% |  | 
2 | Cn1cccc/c1=N\C(=O)C1(C)COC1 [Example 2, 3-methyl-N-[(2E)-1-methylpyridin-2(1H)-ylidene]oxetane-3-carboxamide] | 31% | 38% | 36% | 35% | 24% | 3% | 42% | 37%
3 | CCC1(C(=O)/N=c2\ccccn2C)COC1 [Example 1, 3-Ethyl-N-[(2E)-1-methylpyridin-2(1H)-ylidene]oxetane-3-carboxamide] | 20% | 21% | 23% | 18% | 9% | 13% | 12% | 19%
4 | COc1ccn(C)/c(=N/C(=O)C2(C)CN(C)C2)c1 [Example 51, N-[(2E)-4-methoxy-1-methylpyridin-2(1H)-ylidene]-1,3-dimethylazetidine-3-carboxamide] | 4% | 9% | 12% | 10% | 27% | 31% | 16% | 30%
5 | CCC1(C(=O)/N=c2\cc(OC)ccn2C)COC1 [Example 9, 3-ethyl-N-[(2E)-4-methoxy-1-methylpyridin-2(1H)-ylidene]oxetane-3-carboxamide] | 4% | 3% | 52% | 37% | 5% | 28% |  | 
6 | CCOc1ccn(C)/c(=N/C(=O)C2(CC)COC2)c1 [Example 13] | 33% | 13% |  |  |  |  |  | 
7 | Cn1cccc/c1=N\C(=O)N1C[C@H]2CC[C@@H](C1)O2 [Example 76] | 44% | 67% |  |  |  |  |  | 
8 | CCn1cccc/c1=N\C(=O)C1(C)COC1 [Example 3, N-[(2E)-1-ethylpyridin-2(1H)-ylidene]-3-methyloxetane-3-carboxamide] | 35% | 74% | 19% | 70% | 28% | 78% | 44% | 39%
9 | CCC1(C(=O)/N=c2\cc(C(F)(F)F)ccn2C)COC1 [Example 7] | 40% | 66% |  |  |  |  |  | 
10 | CCC1(C(=O)/N=c2\ccc(F)cn2C)COC1 [Example 31, 3-ethyl-N-[(2E)-5-fluoro-1-methylpyridin-2(1H)-ylidene]oxetane-3-carboxamide] | 25% | 53% | 23% | 19% | 13% | 12% |  | 
